Compound in this assay: COc1cc(Nc2c(C#N)cnc3cc(OCCCN4CCN(C)CC4)c(OC)cc23)c(Cl)cc1Cl [Bosutinib]
The experiment in a line: relative viability (nuclei count vs DMSO), 5 days (fraction); higher = more cells survive. Summed up: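 Cells of lung cancer lines were placed in 1536-well plates and kept overnight at 37 °C. Pinning then delivered five library-drug doses (not always all listed), spaced by √10, onto plates anchored with vehicle, and the cells were left 5 days without changing medium. One step fixed, permeabilised and stained them with Hoechst, and MetaXpress counted nuclei in 4× images. Viability, as a median over plates, is treated-well nuclei divided by vehicle-well nuclei, with acceptance only at control CV below 25% and at least one doubling.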

In the case of 201T, the relative viability (0.01 µM) amounted to 1, the relative viability (0.03162 µM) was determined as 0.991, the relative viability (0.1 µM) is 1.02 and the relative viability (1 µM) was determined as 0.906.

In the case of A-427, the relative viability came out at 0.979 (0.01 µM), 1.04 (0.03162 µM), 1.03 (0.1 µM) and 0.926 (1 µM).

ABC-1: the relative viability (0.01 µM) amounted to 0.976, the relative viability (0.03162 µM) turned out to be 0.99, the relative viability (0.1 µM) amounted to 0.854 and the relative viability (1 µM) stood at 0.88.

With BEN, the relative viability is, setting by setting: (0.01 µM) 0.952; (0.03162 µM) 0.984; (0.1 µM) 1.08; (1 µM) 0.765.

As to CAL-12T, the relative viability is, setting by setting: (0.01 µM) 1.06; (0.03162 µM) 0.96; (0.1 µM) 0.95; (1 µM) 0.914.

As for COR-L23, the relative viability worked out at 1.05 (0.01 µM), 0.972 (0.03162 µM), 1.07 (0.1 µM) and 1.03 (1 µM).

With COR-L 105, the relative viability came out at 0.974 (0.01 µM), 0.861 (0.03162 µM), 0.914 (0.1 µM) and 0.735 (1 µM).

Regarding ChaGo-K-1, the relative viability reads like this: (0.01 µM) 0.966; (0.03162 µM) 0.976; (0.1 µM) 1.01; (1 µM) 0.997.

For EKVX, the relative viability worked out at 0.927 (0.01 µM), 0.971 (0.03162 µM), 0.952 (0.1 µM) and 0.85 (1 µM).

EMC-BAC-2: the relative viability runs as follows: (0.01 µM) 0.95; (0.03162 µM) 1.09; (0.1 µM) 1.09; (1 µM) 0.928.

Regarding EPLC-272H, the relative viability is 0.982 (0.01 µM), 1.01 (0.03162 µM), 1.12 (0.1 µM) and 0.911 (1 µM).

For the cell line H3255, the relative viability came out at 0.931 (0.01 µM), 0.978 (0.03162 µM), 0.995 (0.1 µM) and 0.594 (1 µM).

Turning to HARA, the relative viability by setting is: (0.01 µM) 1.07; (0.03162 µM) 1.02; (0.1 µM) 0.993; (1 µM) 0.791.

As for HCC-15, the relative viability was 1.05 (0.01 µM), 1.03 (0.03162 µM), 1.06 (0.1 µM) and 0.926 (1 µM).

Take HCC-44: the relative viability reads like this: (0.01 µM) 0.99; (0.03162 µM) 1.02; (0.1 µM) 1.02; (1 µM) 1.01.

As for HCC-78, the relative viability by setting is: (0.01 µM) 0.906; (0.03162 µM) 1.2; (0.1 µM) 1.08; (1 µM) 0.902.

In the case of HCC-366, the relative viability was found to be 0.991 (0.01 µM), 1 (0.03162 µM), 0.974 (0.1 µM) and 0.785 (1 µM).

Consider HCC-827, for which the relative viability is, setting by setting: (0.01 µM) 1.07; (0.03162 µM) 1.05; (0.1 µM) 1.09; (1 µM) 0.649.

Consider HOP-62, for which the relative viability by setting is: (0.01 µM) 0.977; (0.03162 µM) 1.01; (0.1 µM) 0.959; (1 µM) 1.05.

As to IA-LM, the relative viability (0.01 µM) is 0.998, the relative viability (0.03162 µM) was determined as 1.08, the relative viability (0.1 µM) amounted to 0.967 and the relative viability (1 µM) was 1.01.

LC-2-ad: the relative viability runs as follows: (0.01 µM) 0.961; (0.03162 µM) 1.08; (0.1 µM) 1.06; (1 µM) 1.

Take LCLC-97TM1: the relative viability turned out to be 1.03 (0.01 µM), 0.969 (0.03162 µM), 1.06 (0.1 µM) and 1.04 (1 µM).

For the cell line LCLC-103H, the relative viability reads like this: (0.01 µM) 1.01; (0.03162 µM) 0.999; (0.1 µM) 0.991; (1 µM) 0.996.

Turning to LK-2, the relative viability amounted to 0.942 (0.01 µM), 0.972 (0.03162 µM), 0.929 (0.1 µM) and 0.867 (1 µM).

As for LOU-NH91, the relative viability reads like this: (0.01 µM) 0.941; (0.03162 µM) 0.999; (0.1 µM) 0.971; (1 µM) 0.779.

In the case of LU99A, the relative viability came to 0.958 (0.01 µM), 1.02 (0.03162 µM), 1.04 (0.1 µM) and 0.606 (1 µM).

LXF-289: the relative viability reads like this: (0.01 µM) 1; (0.03162 µM) 1.01; (0.1 µM) 1.03; (1 µM) 1.01.

Consider NCI-H23, for which the relative viability by setting is: (0.01 µM) 1.13; (0.03162 µM) 0.997; (0.1 µM) 1.04; (1 µM) 0.872.

NCI-H322M: the relative viability (0.01 µM) came out at 0.889, the relative viability (0.03162 µM) worked out at 0.985, the relative viability (0.1 µM) is 0.98 and the relative viability (1 µM) is 0.576.

As for NCI-H358, the relative viability (0.01 µM) was determined as 0.964, the relative viability (0.03162 µM) is 0.913, the relative viability (0.1 µM) is 0.961 and the relative viability (1 µM) worked out at 0.685.

NCI-H441: the relative viability is, setting by setting: (0.01 µM) 1.1; (0.03162 µM) 1.1; (0.1 µM) 1.31; (1 µM) 1.03.

With NCI-H460, the relative viability is, setting by setting: (0.01 µM) 1.02; (0.03162 µM) 0.976; (0.1 µM) 0.967; (1 µM) 0.875.

For NCI-H520, the relative viability (0.01 µM) worked out at 1.02, the relative viability (0.03162 µM) was determined as 1.11, the relative viability (0.1 µM) was 0.953 and the relative viability (1 µM) was 0.775.

As for NCI-H596, the relative viability is, setting by setting: (0.01 µM) 1.11; (0.03162 µM) 1.03; (0.1 µM) 0.984; (1 µM) 0.863.

NCI-H647: the relative viability (0.01 µM) is 1.07, the relative viability (0.03162 µM) was 0.933, the relative viability (0.1 µM) turned out to be 0.928 and the relative viability (1 µM) came to 0.627.

In the case of NCI-H650, the relative viability (0.01 µM) was 1, the relative viability (0.03162 µM) was found to be 1.06, the relative viability (0.1 µM) stood at 1.08 and the relative viability (1 µM) was 1.11.

For NCI-H661, the relative viability is 0.97 (0.01 µM), 1.09 (0.03162 µM), 1.06 (0.1 µM) and 0.731 (1 µM).

These data come from the supplement of paper PMC10307832.
